Test results published in US20230108049A1, “ORAL FAST-DISPERSING DOSAGE FORM OF RIMEGEPANT” (BIOHAVEN PHARMACEUTICAL HOLDING COMPANY LTD., priority 2020, published 2023).

Experiments:
[1] = Excretion after oral [14C]-rimegepant; assay type: in vivo, human; conditions: oral, healthy male subjects
From the text: Following oral administration of [^14C]-rimegepant to healthy male subjects, 78% of the total radioactivity was recovered in feces and 24% in urine. Unchanged rimegepant is the major single component in excreted feces (42%) and urine (51%).

[2] = Solubility in water; assay type: physicochemical; conditions: white to off-white crystalline solid

| Structure (SMILES) | total radioactivity recovered in feces [1] [%] | total radioactivity recovered in urine [1] [%] | solubility in water [2] |
| --- | --- | --- | --- |
| N[C@@H]1c2cccnc2[C@H](OC(=O)N2CCC(n3c(=O)[nH]c4ncccc43)CC2)CC[C@H]1c1cccc(F)c1F [[^14C]-rimegepant] | 78 | 24 |  |
| N[C@@H]1c2cccnc2[C@H](OC(=O)N2CCC(n3c(=O)[nH]c4ncccc43)CC2)CC[C@H]1c1cccc(F)c1F [rimegepant hemisulfate, (5S,6S,9R)-5-amino-6-(2,3-difluorophenyl)-6,7,8,9-tetrahydro-5H-cyclohepta[b]pyridin-9-yl 4-(2-oxo-2,3-dihydro-1H-imidazo[4,5-b]pyridin-1-yl)-1-piperidinecarboxylate hemisulfate sesquihydrate] |  |  | slightly soluble in water |
